Experimental data taken from the supplement of paper PMC8372320.

Assay: photocatalytic hydrogen evolution rate (per 5 mg catalyst); higher = more photocatalytic H2 evolution; extreme values may be limits of the assay
Conditions: catalyst mass (mg): 5; Pt cocatalyst (wt%): 3; sacrificial medium: triethylamine/methanol/water 1:1:1
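Note: aromatic molecules in triethylamine/methanol/water with Pt photoreduced in situ, irradiated 3 h under a 1 sun AM 1.5G solar simulator (350–1000 nm), H2 quantified by headspace gas chromatography; listed molecule itself used as the photocatalyst at 5 mg per vial.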

SMILES	photocatalytic hydrogen evolution rate [µmol/h]
N#Cc1ccc(C=O)nc1	0.139
N#Cc1ccc(C=O)s1	0.0384
Brc1ccc2c(c1)[nH]c1cc(Br)ccc12	0
O=C1OC(=O)c2ccc3c4ccc5c6c(ccc(c7ccc1c2c73)c64)C(=O)OC5=O	0
N#Cc1ccc(C#N)nc1	0.0617
C#Cc1ccc(C=O)cc1	0
O=Cc1cc(Br)cc(C=O)c1	0.831
N#Cc1cncc(Br)n1	0.0873
Brc1ccc(I)cc1	0
O=C(O)c1c(F)c(F)c(C(=O)O)c(F)c1F	0
CC1(C)OB(c2ccc(-n3c4ccccc4c4ccccc43)cc2)OC1(C)C	0.135
c1ccc(-c2ccc(-c3ccc(-c4ccc(-c5ccc(-c6ccccc6)cc5)cc4)cc3)cc2)cc1	0
N#Cc1c(F)c(F)c(Br)c(F)c1F	0
Brc1c2c(c(Br)c3nsnc13)N=S=N2	0
N#Cc1cscc1C#N	0
Brc1cnc(Br)c2nsnc12	0
Fc1cc(Br)c(Br)cc1F	0
O=C1Cc2cc(Br)cc(Br)c2N1	0
O=c1c2ccccc2sc2ccccc12	14.6
c1ccc2c(c1)ccc1ccccc12	0.057
OB(O)c1ccc(B(O)O)cc1	0.053
Cc1ccc(-c2ccc(C=O)cc2)cc1	3.39
Nc1cccc2c(N)cccc12	0
O=Cc1cccc(C=O)n1	0

SMILES	photocatalytic hydrogen evolution rate [µmol/h]
CN(C)c1ccncc1	0
O=C(O)c1ccc2cc(C(=O)O)ccc2c1	0
O=Cc1ccc(F)c(O)c1	0.000356
N#Cc1ccc(Br)c(F)c1	0
O=C(O)c1ccc(-c2ccccc2)cc1	0
c1csc(-c2ccc(N(c3ccc(-c4cccs4)cc3)c3ccc(-c4cccs4)cc3)cc2)c1	0
CC1(C)OB(c2cc3ccc4cc(B5OC(C)(C)C(C)(C)O5)cc5ccc(c2)c3c45)OC1(C)C	0.0847
BrCc1cc(Br)cc(Br)c1	0
N#Cc1ccncc1Br	0
c1cc2ccc3cccc4ccc(c1)c2c34	0.198
CC1(C)OB(c2ccc3c4ccc(B5OC(C)(C)C(C)(C)O5)cc4n(-c4ccccc4)c3c2)OC1(C)C	0.0133
O=Cc1ccc(C=O)c([N+](=O)[O-])c1	0
COC(=O)/C=C/c1ccccc1	0
Oc1ccc(O)cc1	0
N#Cc1ccccc1CBr	0
N#Cc1ccc(Br)cn1	0
O=C1OC2(c3ccccc31)c1cc(Br)c(O)c(Br)c1Oc1c2cc(Br)c(O)c1Br	23.9
N#Cc1ccc(CCc2ccc(C#N)cc2)cc1	0
N#Cc1ccc(-c2ccccc2C#N)cc1	0
Brc1cnc(Br)nc1	0
N#Cc1c(F)c(F)c(F)c(F)c1C#N	4.24
COc1ccnc(-c2cc(OC)ccn2)c1	0.169
O=Cc1ccc(-c2ccc(C=O)cc2)cc1	8.89
